Experimental data taken from ChEMBL document CHEMBL2203174, “SAR Development of Lysine-Based Irreversible Inhibitors of Transglutaminase 2 for Huntington's Disease” (ACS Med Chem Lett, 2012).
In brackets after ≈: the same amount, converted by molar mass. Peptide text beside a SMILES is read from it. * marks the point of attachment. Cbz = O=C(OCc1ccccc1)*; Acryloyl = C=CC(=O)*; OtBu = CC(C)(C)O*

Legend:
[1] = Intrinsic clearance in mouse liver microsomes at 1 uM by LC-MS/MS analysis; format: ADME, Microsome; settings: read-out: CLH
[2] = Intrinsic clearance in human liver microsomes at 1 uM by LC-MS/MS analysis; format: ADME, Microsome; settings: read-out: CLH
[3] = test system: MDR1; assay: Efflux ratio of permeability in MDCK cells expressing MDR1 at 10 uM; format: ADME, cell-based, Canis lupus familiaris; settings: dog
[4] = Half life in human plasma at 1 uM by LC-MS/MS analysis; format: ADME, cell-free
[5] = target: T1, Protein-glutamine gamma-glutamyltransferase K (Homo sapiens, UniProt P22735); assay: Inhibition of transglutaminase 1
T1 sequence (P22735 whole entry): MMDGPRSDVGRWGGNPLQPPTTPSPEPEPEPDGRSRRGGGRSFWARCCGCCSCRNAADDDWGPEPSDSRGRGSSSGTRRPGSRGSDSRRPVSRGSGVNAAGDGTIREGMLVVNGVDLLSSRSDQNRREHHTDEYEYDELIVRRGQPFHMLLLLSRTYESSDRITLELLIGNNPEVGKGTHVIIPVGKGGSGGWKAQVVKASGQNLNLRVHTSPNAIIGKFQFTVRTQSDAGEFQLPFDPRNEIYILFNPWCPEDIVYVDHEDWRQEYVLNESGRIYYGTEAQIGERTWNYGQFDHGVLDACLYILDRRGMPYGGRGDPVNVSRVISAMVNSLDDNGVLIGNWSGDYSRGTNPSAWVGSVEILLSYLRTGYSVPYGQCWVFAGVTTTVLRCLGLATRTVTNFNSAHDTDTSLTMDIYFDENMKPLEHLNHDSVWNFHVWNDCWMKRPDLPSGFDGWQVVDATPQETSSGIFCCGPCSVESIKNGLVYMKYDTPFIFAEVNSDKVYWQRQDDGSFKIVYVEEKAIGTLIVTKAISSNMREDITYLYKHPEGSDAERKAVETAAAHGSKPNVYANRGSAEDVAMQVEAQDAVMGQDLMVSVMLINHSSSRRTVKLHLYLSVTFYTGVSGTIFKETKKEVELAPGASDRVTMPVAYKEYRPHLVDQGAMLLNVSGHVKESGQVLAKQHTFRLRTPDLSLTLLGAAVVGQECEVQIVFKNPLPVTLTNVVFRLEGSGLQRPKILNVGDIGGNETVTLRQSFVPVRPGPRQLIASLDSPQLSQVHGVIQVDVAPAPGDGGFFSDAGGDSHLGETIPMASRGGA

[6] = Kinetic solubility of the compound in PBS at pH 7.4 by LC-UV analysis; format: physicochemical; settings: read-out: Kinetic_solubility
[7] = Half life in mouse plasma at 1 uM by LC-MS/MS analysis; format: ADME, cell-free
[8] = Apparent permeability of the compound across apical to basolateral side in wild type MDCK cells at 10 uM; format: ADME, cell-based, Canis lupus familiaris; settings: dog
[9] = Ratio of IC50 for mouse transglutaminase 2 to IC50 for human transglutaminase 2
[10] = Apparent permeability of the compound across apical to basolateral side in human Caco2 cells; format: ADME, cell-based; settings: Caco-2
[11] = target: T2, Protein-glutamine gamma-glutamyltransferase 2 (Mus musculus, UniProt P21981); assay: Inhibition of mouse transglutaminase 2
T2 sequence (P21981 whole entry): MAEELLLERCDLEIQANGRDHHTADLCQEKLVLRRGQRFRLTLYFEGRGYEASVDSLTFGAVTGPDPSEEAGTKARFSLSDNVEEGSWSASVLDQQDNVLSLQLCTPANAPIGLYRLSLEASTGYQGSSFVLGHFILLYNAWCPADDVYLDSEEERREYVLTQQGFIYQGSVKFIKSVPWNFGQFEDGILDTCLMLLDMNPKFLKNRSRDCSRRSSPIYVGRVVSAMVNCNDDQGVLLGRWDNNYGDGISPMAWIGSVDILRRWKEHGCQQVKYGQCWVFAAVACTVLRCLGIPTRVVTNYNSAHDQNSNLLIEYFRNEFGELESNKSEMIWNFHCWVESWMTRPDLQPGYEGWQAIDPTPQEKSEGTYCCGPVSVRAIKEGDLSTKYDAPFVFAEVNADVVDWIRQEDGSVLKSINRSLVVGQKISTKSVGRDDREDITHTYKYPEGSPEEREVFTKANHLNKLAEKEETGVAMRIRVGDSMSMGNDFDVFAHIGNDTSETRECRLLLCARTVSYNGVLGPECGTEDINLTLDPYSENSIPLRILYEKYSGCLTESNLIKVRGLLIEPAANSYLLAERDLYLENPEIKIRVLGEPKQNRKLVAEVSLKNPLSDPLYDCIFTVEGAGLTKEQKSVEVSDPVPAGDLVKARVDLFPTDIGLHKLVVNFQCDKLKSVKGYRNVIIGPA

[12] = Aqueous solubility of the compound; format: physicochemical; settings: buffer
[13] = Half life in mouse liver microsomes; format: ADME, Microsome
[14] = Apparent permeability of the compound across basolateral to apical side in human Caco2 cells; format: ADME, cell-based; settings: Caco-2

microsomal CLint at 1 µM [1]	microsomal CLint at 1 µM [2]	efflux ratio at 10 µM [3]	half-life at 1 µM [4]	IC50 [5]	solubility kinetic [6]	half-life at 1 µM [7]	Papp A→B at 10 µM [8]	Ratio IC50 [9]	Papp A→B [10]	IC50 [11]	solubility [12]	half-life [13]	Papp B→A [14]	Compound
> 1390 µL/min/mg	> 1390 µL/min/mg	7.1	> 8 h	12.9 µM	60 µg/mL (≈ 117 µM)	> 8 h	30.3 ×10⁻⁶ cm/s	2						C=CC(=O)NCCCC[C@H](NC(=O)OCc1ccccc1)C(=O)N1CCN(c2ccccc2Cl)CC1
				> 80 µM					7.5 ×10⁻⁶ cm/s	6.2 µM	1490 µg/mL (≈ 3330 µM)	7 min	25 ×10⁻⁶ cm/s	C=CC(=O)NCCCC[C@H](NC(=O)OCc1ccccc1)C(=O)NCC(=O)OC(C)(C)C (Cbz-Lys(Acryloyl)-Gly-OtBu)
	> 1390 µL/min/mg	118	> 24 h	15 µM	870 µg/mL (≈ 1820 µM)	> 24 h	14.2 ×10⁻⁶ cm/s							C=CC(=O)NCCCC[C@H](NC(=O)Cc1ccccc1)C(=O)N1CCN(c2cccc(C)n2)CC1
